Measurements published in patent publication US20240117305A1, “THREE-DIMENSIONAL PRINTABLE BIOCOMPATIBLE PHOTOPOLYMERIZABLE INK WITH SPATIALLY CONTROLLED DUAL PROTEIN MOTIFS FOR CO-CULTURE FUNCTIONALITY” (Rowan University, priority 2022, published 2024).
“Also recorded” adds a separate entry of the source.

Columns and labels:
[1] = test system: hCMEC/D3 endothelial cells; assay: Endothelial spreading and cell coverage in peptide-lined DLP-printed channels; type: cell-based; conditions: for Cell spreading and vessel coverage over time: 650 μm channels in photoink formulation no. 1, 5-day static culture, images on days 1, 3, 5; for Percent cell coverage within the vessel versus control / other motifs: 650 μm channels in photoink formulation no. 1, static culture, day 5, peptide clicked to channel wall; for Microenvironment for vessel coverage and development of barrier function: overall statement covering coverage and ZO-1 results in hCMEC/D3 endothelial cells
Method: Radicalized driven thiol-ene reaction schemes were utilized for functionalizing biomaterials. Several thiolated peptide cell binding motifs were functionalized to the walls of the printed geometry. Fluorescent labeled peptides were first synthesized via peptide synthesizer. […] Lyophilized RFP and GFP were both brought to room temperature and diluted to 10 mg/mL in 1×PBS. The bifurcation geometry print included RFP peptide in the bulk solution at 1:1000, while 300 μL of GFP was flowed into the channel at 10 μg/mL and hit with […] for 180 seconds. Process was repeated in the same manner for channel functionalization of the ‘RU’ geometry. Similarly, HAVDI(HAVDIGGGC), derived from N-Cadherein and RGD(GCGYGRGDSPG), derived from multiple ECM proteins, were synthesized and purchased from Genscript. IKVAV(GCGGGIKVAVG), a laminin derived motif, was fabricated using a peptide synthesizer. 5 mg/mL Irgacure 12959 was diluted to 0.5 mg/mL in PBS and thiolated peptide was added to a final concentration of 5 mM. 50 μL of peptide solution was injected into the channel and 10 mW/cm^2 was radiated onto surface of gel for 60 seconds. This process was repeated after inverting the gel to assure full coverage of the peptide onto the surface of the channel. Gels were then washed out 2× for 30 minutes in PBS to remove any unbound peptide.
(§1) P23 hCMEC/D3 endothelial cells (with and without transfection with RFP-LifeAct) were cultured until 90% confluent, trypsinized, and suspended at a concentration of 50M/mL for hydrogel cell seeding. Hydrogels were seeded with 22 μL of 12.5 M/mL and placed face up at the bottom of six well plate with 1 mL of EGM-2 incubated at 37° C./5% CO2. The cell seeding technique included 90° rotations every 30 minutes with additional seeding every hour for 4 hours. Following initial seeding, 8.8 μL of 12.5 M/mL HCMEC/D3 were injected into the bifurcation geometry for vessel coating. After 4 hours, hydrogels were kept in static culture for 4-5 days in EGM-2.
(§2) In order to quantify cell spreading, a z-projection was used with an arbitrary ROI to quantify the percentage of the area covered by cells. Three different ROI's were analyzed to provide an average and standard deviation. ZO-1 intensity was quantified in both static and perfused culture at different locations within the branched network. The image intensity along approximately 70-μm lines across the image plane were plotted to quantify ZO-1 localization to cell-cell junctions. […] ImageJ was used for all image processing and analysis.
Imaging was performed on a Nikon Eclipse Ti Confocal Microscope to assess cell spreading, morphology, and proliferation in 3D overtime within these microvessels. Images were taken on days 1, 3, and 5 following cell seeding.
(§3) A two-factor ANOVA was calculated to test for significance in the two variables of time and peptide coating in the cell spreading assay. In order to test for significance in the ZO-1 localization experiments, a one-factor ANOVA was calculated for each peptide condition tested.

[2] = test system: ZO-1 localization in hCMEC/D3 cells; assay: ZO-1 localization to cell-cell junctions (tight junction integrity) in peptide-lined vessels; type: cell-based; conditions: for ZO-1 staining localization to cell-cell junctions (images): photoink formulation no. 1, static conditions for five days; for Root mean square ZO-1 intensity quantification (barrier formation): photoink formulation no. 1, static culture day 5, p<0.05
Method: as §1
Vessels cultured in static conditions for four days were hooked up to pressure driven flow using an Arduino-controlled peristaltic pump. Gels were ported inside a perfusion chamber with 20-gauge PTFE catheter tips connected to luer locks with tygon tubing (McMaster Carr). Vessels were connected in parallel through a dampener with EGM-2 for 24 hours at a flow rate of ˜5 mL/min or 44.4 dyne/cm^2 shear stress in the branches and 1.68 dyne/cm^2 in the region adjacent to the bifurcation.
Following static and/or flow culture within the vessels, hydrogels were washed 3× in PBS and placed in 4% paraformaldehyde for 20 minutes. Gels were washed in PBS and a primary monoclonal antibody for zonula-occluden-1 (ZO-1) (Cell Signaling Technologies) was added at 1:250 in PBS and incubated at 4° C. for 48 hours. Gels were then washed for 10 minutes 3× in PBS on the rocker. Far red-labeled ZO-1 secondary antibody (Cell Signaling Technologies) was diluted 1:250 in PBS along with Hoesch at 2 ug/ml. Solution was added to the gels and incubated for 1 hour at 37° C. Gels were then washed and imaged on a Nikon Eclipse Ti Confocal microscope.
as §2, §3

Row | Sequence | Cell spreading and vessel coverage over time [1] | Endothelial coverage of the branched (bifurcation) topology ([1]; bifurcation vessel, endothelial cells only, before seeding astrocytes) | ZO-1 localization in response to flow ([2]; network topology designed to induce flow separation, fully developed versus disturbed flow) | ZO-1 staining localization to cell-cell junctions (images) [2] | Percent cell coverage within the vessel versus control / other motifs [1] | Microenvironment for vessel coverage and development of barrier function [1] | Root mean square ZO-1 intensity quantification (barrier formation) [2]
1 | GCGYGRGDSPG [thiolated peptide motif derived from multiple ECM proteins, clicked to channel walls or in the bulk photoink] | exhibited immediate spreading on PEG-norbornene and progressed linearly overtime; also recorded: increased cell spreading | full channel coverage was possible | no significant difference in ZO-1 localization in response to fully developed and disturbed flow | the ZO-1 was the most diffuse in this condition; also recorded: did not result in the highest ZO-1 localization to cell-cell junctions |  |  | 
2 | HAVDIGGGC | over the course of the experiment cells began to spread and cover the walls; also recorded: took several days to spread and cover the vessel wall |  |  | increase zonula occulends-1 (“ZO-1”) localization to cell-cell junctions; also recorded: ZO-1 junctional staining was the clearest; also recorded: induced the highest ZO-1 localization to the cell-cell junctions | significantly improve endothelialization compared to other motifs; also recorded: significantly higher coverage than the control condition | provide the most favorable microenvironment for both vessel coverage and development of barrier function | significantly higher barrier formation than the RGD and control-lined channels
3 | GCGGGIKVAVG [thiolated laminin derived motif, covalently clicked to channel walls] | exhibited no noticeable difference in vessel coverage throughout the 5-day static culture |  |  | increase zonula occulends-1 (“ZO-1”) localization to cell-cell junctions; also recorded: exhibited more ZO-1 localization to the cell-cell junctions | significantly improve endothelialization compared to other motifs; also recorded: significantly higher coverage than the control condition | provide the most favorable microenvironment for both vessel coverage and development of barrier function | significantly higher barrier formation than the RGD and control-lined channels
